{"source": "patent US6497862B2", "about": "“Composition for inhibiting body odor and uses thereof” (Kabushiki Kaisha Hayashibara, priority 2000, dated 2002)", "system": "16 healthy males, ranging from 48 to 75 years old", "experiment": "Test on 16 volunteers: KAREI-SHU aldehydes collected from worn underwears (Experiment 8)", "type": "in vivo, human", "experimental": "In accordance with the test on volunteer in Experiment 7, the following experiment was conducted with more volunteers, while focusing particularly on the formation inhibitory effect on KAREI-SHU by trehalose. The number of volunteers used in this experiment was 16 healthy males, ranging from 48 to 75 years old. Cotton-made half-sleeve underwears with substantially the same quality were purchased, washed with only water and dried twice in a cyclic manner for volunteers' use as underwears during the test period. As for towels and gauzes used by volunteers during the test period, those with substantially the same quality were purchased, washed with only water and dried twice in a cyclic manner for use. The initiation day of the test was expressed with day 0, and when the volunteers use body-odor-care-goods such as deodorants and bath salts daily, they were asked to suspend their use two days before the initiation of the test, i.e., day −2.\nUntil about 10 a.m. on day 0, each volunteer was in a usual manner asked to take a bath to sufficiently wash their bodies including hairs. After bathing, they were sequentially allowed to wipe water drops on the surface of their bodies with towels, allowed to wear the prepared underwears, and allowed to spend their daily life as usual.\nAt about 5 p.m. on day 1, the underwears worn by the volunteers were collected from them and, as underwears for a […], subjected to the following analysis.\nUntil 10 a.m. on day 1, each volunteer was allowed to take a bath similarly as done on day 0. Just after bathing, they were allowed to wipe water drops on their body surfaces with towels, and sprayed by a sprayer over upper half parts of their bodies with a 2% (w/w) aqueous trehalose solution, which had been previously prepared and provided to the volunteers, followed by extending the solution to homogeneity over the upper half parts in such a manner of tapping on the surfaces of the parts with gauzes, which had been previously soaked in a fresh preparation of the same solution as above. By repeating the steps of spraying and extending for several times before natural dryness, trehalose was applied over the surfaces of upper half parts of the volunteers. Thereafter, the volunteers were allowed to wear new underwears prepared previously and to spend their daily life as usual.\nUntil about 10 a.m. on day 2, each volunteer was allowed to take a bath similarly as done on day 0. Just after bathing, the volunteers were applied with trehalose over the surfaces of their upper half parts similarly as done on day 1, then allowed to wear new underwears prepared previously and spend their daily life as usual.\nAt about 5 p.m. on day 3, the underwears worn by the volunteers were collected from the volunteers and, as underwears for a […], subjected to the following analysis.\nThe underwears collected from the volunteers in the control and test systems were instantly treated by the method in Experiment 7, followed by collecting in a column volatile aldehydes as DNPH derivatives from the underwears. The DNPH derivatives collected in the column were subjected to analysis according to the method in Experiment 7. Using as standard specimens 2-nonenal, 2-octenal, and 2-hexenal, they were separately subjected to GC analysis under the same conditions as above. Based on the gas chromatograms obtained from the above analyses, the contents (μg) of 2-nonenal, 2-octenal, and 2-hexenal, collected from the underwears in the test and control systems, were respectively determined. Respective data obtained from all the volunteers are in Table 8.\nAs shown in the data of the control system in Table 8, 2-nonenal, 2-octenal and 2-hexenal, known as substances causative of KAREI-SHU, were particularly detected in the underwears from volunteers age over 56. […]", "key": {"[1]": {"conditions": "individual volunteers A-P (age 48-75), 2% (w/w) aqueous trehalose solution on upper half of body"}}, "note": "“And” between values parts separate entries of the source, which are not always exact repeats. Equal values may be shown once. Marks after values point to notes of the source that are not given here."}
{"smiles": "OC[C@H]1O[C@H](O[C@H]2O[C@H](CO)[C@@H](O)[C@H](O)[C@H]2O)[C@H](O)[C@@H](O)[C@@H]1O", "note": "[Trehalose, trehalose]", "values": [{"measurement": "Content of 2-Hexenal collected from volunteers' underwears, mean ± standard deviation, with trehalose application", "setting": "Age 54 or under (n = 8), control 0.06 ± 0.18", "result": "0.09 ± 0.24^ μg"}, {"measurement": "Content of 2-Nonenal collected from volunteers' underwears, mean ± standard deviation, with trehalose application", "setting": "Age 54 or under (n = 8), control 0.19 ± 0.21", "result": "0.19 ± 0.40^ μg"}, {"measurement": "Content of 2-Octenal collected from volunteers' underwears, mean ± standard deviation, with trehalose application", "setting": "Age 54 or under (n = 8), control 1.00 ± 1.00, p < 0.05 to control", "result": "0.21 ± 0.36^a μg"}, {"measurement": "Total content of 2-nonenal, 2-octenal and 2-hexenal collected from volunteers' underwears, mean ± standard deviation, with trehalose application", "setting": "Age 54 or under (n = 8), control 1.26 ± 1.02, p < 0.05 to control", "result": "0.48 ± 0.50^a μg"}, {"measurement": "Content of 2-Hexenal collected from volunteers' underwears, mean ± standard deviation, with trehalose application", "setting": "Age 56 or higher (n = 8), control 5.44 ± 4.39, p < 0.05 to control", "result": "0.71 ± 1.65^a μg"}, {"measurement": "Content of 2-Octenal collected from volunteers' underwears, mean ± standard deviation, with trehalose application", "setting": "Age 56 or higher (n = 8), control 5.51 ± 3.71, p < 0.05 to control", "result": "2.59 ± 1.92^a μg"}, {"measurement": "Content of 2-Nonenal collected from volunteers' underwears, mean ± standard deviation, with trehalose application", "setting": "Age 56 or higher (n = 8), control 6.61 ± 3.75, p < 0.05 to control", "result": "2.11 ± 1.87^a μg"}, {"measurement": "Total content of 2-nonenal, 2-octenal and 2-hexenal collected from volunteers' underwears, mean ± standard deviation, with trehalose application", "setting": "Age 56 or higher (n = 8), control 17.17 ± 10.14, p < 0.01 to control", "result": "5.40 ± 4.66^b μg"}, {"measurement": "Content of volatile aldehydes collected from volunteer, 2-Hexenal, with trehalose application (test system)", "setting": "[1]", "result": "0.00 μg (13×) and 0.68 μg and 0.95 μg and 4.70 μg"}, {"measurement": "Content of volatile aldehydes collected from volunteer, 2-Octenal, with trehalose application (test system)", "setting": "[1]", "result": "0.24 μg and 0.28 μg and 1.04 μg and 0.00 μg (5×) and 1.82 μg and 1.07 μg and 2.59 μg and 1.13 μg and 5.43 μg and 4.24 μg and 4.42 μg and 0.11 μg"}, {"measurement": "Content of volatile aldehydes collected from volunteer, Nonenal, with trehalose application (test system)", "setting": "[1]", "result": "0.17 μg and 0.00 μg (6×) and 0.18 μg and 1.17 μg and 1.66 μg and 1.10 μg and 1.41 μg and 0.35 μg and 2.71 μg and 4.65 μg and 4.99 μg"}, {"measurement": "Content of volatile aldehydes collected from volunteer, Total of 2-nonenal, 2-octenal and 2-hexenal, with trehalose application (test system)", "setting": "[1]", "result": "0.41 μg and 0.97 μg and 1.04 μg and 0.18 μg and 1.17 μg and 3.48 μg and 1.10 μg and 1.07 μg and 4.96 μg and 1.47 μg and 8.14 μg and 8.89 μg and 14.12 μg and 0.00 μg (2×) and 0.11 μg"}]}
